# Legend:
# [1] = system: FU-OV-1 (Ovarian Carcinoma); assay: Bliss excess, mean over the matrix (fraction); higher = more synergy
# Procedure, shortened: (§1)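 Bliss excess equals the observed combination effect minus the expected value EA + EB − EA·EB, where EA and EB are the effects of each agent alone. Combination Emax is the second-highest inhibition within the matrix. Inhibition was scaled from CellTiter-Glo 2.0 luminescence, with 0 set by vehicle wells and 1 by blank wells, after 72 hours of two-drug dosing of cells plated in 1536-well plates.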
# [2] = system: NCI-H1688 (Small Cell Lung Carcinoma); assay: combination Emax (second highest fraction inhibited in the dose matrix, 72 h); higher = more inhibition; extreme values may be limits of the assay
# Procedure, shortened: as §1
# [3] = system: RCC10RGB (Kidney Carcinoma); assay: as above
# Procedure, shortened: as §1
# [4] = system: EFM-192A (Breast Carcinoma); assay: as above
# Procedure, shortened: as §1
# [5] = system: HCC-827 (Lung Adenocarcinoma); assay: as above
# Procedure, shortened: as §1
# [6] = system: P31-FUJ (Acute Myeloid Leukemia); assay: as above
# Procedure, shortened: as §1
# [7] = system: KG-1 (Acute Myeloid Leukemia); assay: as above
# Procedure, shortened: as §1
# [8] = system: FU-OV-1 (Ovarian Carcinoma); assay: as above
# Procedure, shortened: as §1
# [9] = system: SK-LMS-1 (Other Solid Carcinomas); assay: as above
# Procedure, shortened: as §1
# [10] = system: U-118-MG (Low Grade Glioma); assay: as above
# Procedure, shortened: as §1
# [11] = system: HCC1143 (Breast Carcinoma); assay: as above
# Procedure, shortened: as §1
# [12] = system: HOP-92 (Non-Small Cell Lung Carcinoma); assay: as above
# Procedure, shortened: as §1
# [13] = system: D-283MED (Other Solid Carcinomas); assay: as above
# Procedure, shortened: as §1
# [14] = system: GDM-1 (Acute Myeloid Leukemia); assay: as above
# Procedure, shortened: as §1
Compound,Bliss excess [1],combination Emax [2],combination Emax [3],combination Emax [4],combination Emax [5],combination Emax [6],combination Emax [7],combination Emax [8],combination Emax [9],combination Emax [10],combination Emax [11],combination Emax [12],combination Emax [13],combination Emax [14]
"CC1(C)CCC(CN2CCN(c3ccc(C(=O)NS(=O)(=O)c4ccc(NCC5CCOCC5)c([N+](=O)[O-])c4)c(Oc4cnc5[nH]ccc5c4)c3)CC2)=C(c2ccc(Cl)cc2)C1 [Venetoclax] + C[C@@H]1COCCN1C2=NC(=NC(=C2)C3(CC3)[S@](=N)(=O)C)C4=C5C=CNC5=NC=C4 [AZD6738] (first compound max 1 µM, 7x7, partner max 10 µM)",-0.0444,0.451,0.5,0.299,0.33,0.968,0.917,0.485,0.548,0.648,0.821,0.562,0.954,0.946
"CC1(C)CCC(CN2CCN(c3ccc(C(=O)NS(=O)(=O)c4ccc(NCC5CCOCC5)c([N+](=O)[O-])c4)c(Oc4cnc5[nH]ccc5c4)c3)CC2)=C(c2ccc(Cl)cc2)C1 [Venetoclax] + C1CN(CCC1(C(=O)N[C@@H](CCO)C2=CC=C(C=C2)Cl)N)C3=NC=NC4=C3C=CN4 [Capivasertib] (first compound max 1 µM, 7x7, partner max 3 µM)",-0.0783,0.294,0.197,0.379,0.273,0.896,0.516,0.151,0.271,0.4,0.239,0.402,0.582,0.866
"CC1(C)CCC(CN2CCN(c3ccc(C(=O)NS(=O)(=O)c4ccc(NCC5CCOCC5)c([N+](=O)[O-])c4)c(Oc4cnc5[nH]ccc5c4)c3)CC2)=C(c2ccc(Cl)cc2)C1 [Venetoclax] + C=CCn1c(=O)c2cnc(Nc3ccc(N4CCN(C)CC4)cc3)nc2n1-c1cccc(C(C)(C)O)n1 [AZD1775] (first compound max 1 µM, partner max 1 µM)",-0.0599,0.666,0.572,0.327,0.413,0.942,0.913,0.612,0.61,0.357,0.548,0.48,0.979,1
"CC1(C)CCC(CN2CCN(c3ccc(C(=O)NS(=O)(=O)c4ccc(NCC5CCOCC5)c([N+](=O)[O-])c4)c(Oc4cnc5[nH]ccc5c4)c3)CC2)=C(c2ccc(Cl)cc2)C1 [Venetoclax] + CCN(CCO)CCCOc1ccc2c(Nc3cc(CC(=O)Nc4cccc(F)c4)[nH]n3)ncnc2c1 [AZD2811] (first compound max 1 µM, 7x7, partner max 1 µM)",-0.0705,0.242,0.212,0.212,0.254,0.932,0.84,0.238,0.229,0.357,0.318,0.476,0.778,0.996
"CN(CCO)CC[C@H](CSc1ccccc1)Nc1ccc(S(=O)(=O)NC(=O)c2ccc(N3CCC([C@@H](O)c4ccccc4-c4ccc(Cl)cc4)CC3)cc2)cc1S(=O)(=O)C(F)(F)F [AZD4320] + Cn1cnc2c(F)c(Nc3ccc(Br)cc3Cl)c(C(=O)NOCCO)cc21 [Selumetinib] (first compound max 1 µM, 7x7, partner max 3 µM)",0.0354,0.468,0.576,0.284,0.298,0.901,0.971,0.619,0.924,0.842,0.361,0.963,0.918,1
"CC1(C)CCC(CN2CCN(c3ccc(C(=O)NS(=O)(=O)c4ccc(NCC5CCOCC5)c([N+](=O)[O-])c4)c(Oc4cnc5[nH]ccc5c4)c3)CC2)=C(c2ccc(Cl)cc2)C1 [Venetoclax] + Cn1cnc2c(F)c(Nc3ccc(Br)cc3Cl)c(C(=O)NOCCO)cc21 [Selumetinib] (first compound max 1 µM, 7x7, partner max 3 µM)",-0.0929,0.121,0.447,0.11,0.184,0.871,0.726,0.445,0.203,0.181,0.275,0.148,0.523,0.735
"CC1(C)CCC(CN2CCN(c3ccc(C(=O)NS(=O)(=O)c4ccc(NCC5CCOCC5)c([N+](=O)[O-])c4)c(Oc4cnc5[nH]ccc5c4)c3)CC2)=C(c2ccc(Cl)cc2)C1 [Venetoclax] + CN(C)CCCOc1ccc(-c2ccc3ncc4c(c3c2)n(C2CCOCC2)c(=O)n4C)cn1 [AZD0156] (first compound max 1 µM, 7x7, partner max 1 µM)",-0.0223,0.195,0.174,0.25,0.26,0.861,0.595,0.291,0.5,0.217,0.232,0.292,0.706,0.679
"COc1cccc(OCCCN)c1-c1cc(Nc2cnc(C#N)cn2)n[nH]1 [Prexasertib] + CCc1c2c(nc3ccc(O)cc13)-c1cc3c(c(=O)n1C2)COC(=O)[C@]3(O)CC [SN-38] (first compound max 1 µM, 7x7, partner max 0.3 µM)",0.0846,0.941,0.825,0.318,0.749,0.979,0.925,0.806,0.891,0.986,0.928,0.873,0.99,0.99
"CC1(C)CCC(CN2CCN(c3ccc(C(=O)NS(=O)(=O)c4ccc(NCC5CCOCC5)c([N+](=O)[O-])c4)c(Oc4cnc5[nH]ccc5c4)c3)CC2)=C(c2ccc(Cl)cc2)C1 [Venetoclax] + C[C@@H](Nc1cc(F)cc(F)c1)c1cc(C(=O)N(C)C)cc2c(=O)cc(N3CCOCC3)oc12 [AZD8186] (first compound max 1 µM, 7x7, partner max 3 µM)",-0.0594,0.191,0.447,0.178,0.254,0.866,0.508,0.412,0.412,0.284,0.246,0.206,0.615,0.934
"CC1(C)CCC(CN2CCN(c3ccc(C(=O)NS(=O)(=O)c4ccc(NCC5CCOCC5)c([N+](=O)[O-])c4)c(Oc4cnc5[nH]ccc5c4)c3)CC2)=C(c2ccc(Cl)cc2)C1 [Venetoclax] + Cc1cc2ncnn2cc1Nc1ncc2c(n1)n(C1CCOCC1)c(=O)n2C [AZD7648] (first compound max 1 µM, 7x7, partner max 10 µM)",-0.036,0.245,0.205,0.25,0.292,0.856,0.651,0.358,0.307,0.412,0.253,0.263,0.673,0.842
"CN(CCO)CC[C@H](CSc1ccccc1)Nc1ccc(S(=O)(=O)NC(=O)c2ccc(N3CCC([C@@H](O)c4ccccc4-c4ccc(Cl)cc4)CC3)cc2)cc1S(=O)(=O)C(F)(F)F [AZD4320] + C=CCn1c(=O)c2cnc(Nc3ccc(N4CCN(C)CC4)cc3)nc2n1-c1cccc(C(C)(C)O)n1 [AZD1775] (first compound max 1 µM, partner max 1 µM)",,0.87,0.552,0.302,0.301,0.983,1,,0.778,0.376,0.588,0.974,0.985,1
"Cc1cc2ncnn2cc1Nc1ncc2c(n1)n(C1CCOCC1)c(=O)n2C [AZD7648] + C=CCn1c(=O)c2cnc(Nc3ccc(N4CCN(C)CC4)cc3)nc2n1-c1cccc(C(C)(C)O)n1 [AZD1775] (first compound max 10 µM, partner max 1 µM)",,0.586,0.552,0.455,0.497,0.987,0.452,,0.572,0.435,0.603,0.613,0.957,0.894
"CN(CCO)CC[C@H](CSc1ccccc1)Nc1ccc(S(=O)(=O)NC(=O)c2ccc(N3CCC([C@@H](O)c4ccccc4-c4ccc(Cl)cc4)CC3)cc2)cc1S(=O)(=O)C(F)(F)F [AZD4320] + CN(C)CCCOc1ccc(-c2ccc3ncc4c(c3c2)n(C2CCOCC2)c(=O)n4C)cn1 [AZD0156] (first compound max 1 µM, 7x7, partner max 1 µM)",,0.487,0.243,0.234,0.22,0.814,0.952,,0.371,0.388,0.252,0.899,0.818,1

# From the supplement of paper PMC11061612
